These results are taken from patent US20220397567A1, “NOVEL APPROACH FOR INCREASING CONTRACTILITY IN PATIENTS WITH SYSTOLIC HEART FAILURE” (THE TRUSTEES OF COLUMBIA UNIVERSITY IN THE CITY OF NEW YORK, priority 2019, published 2022).

Experiment [1] concerns Rad in CaV1.2 neighbourhood. The experiment is described as follows: APEX2 proximity labeling with TMT mass spectrometry in Langendorff-perfused α1C-APEX2 hearts. More on the design: species or system mouse. To be noted: Langendorff-perfused α1C-APEX2 whole hearts; 1 μM isoproterenol, 5 minutes.
Description: The inventors also probed the impact of isoproterenol on the CaV1.2 proteome signature in Langendorff-perfused whole hearts (FIG. 9B), tracking 2,610 proteins from 10 hearts in parallel (FIG. 6K, FIG. 15C and FIG. 16A). The inventors monitored phospholamban phosphorylation to confirm that the β-adrenergic signaling pathway in cardiomyocytes is preserved in the presence of biotin-phenol and H2O2 (FIG. 14C and FIG. 14D).
For biotinylation in Langendorff-perfused hearts, mice were injected with 5 mg/kg propranolol-HCl (Sigma PHR1308) to suppress adrenergic stimulation during the isoflurane anesthesia and cardiectomy. Hearts were retrograde perfused with Krebs' solution for 10 minutes prior to addition of biotin-phenol for 15 minutes. During the final 5 minutes, 1 μM Isoproterenol (Sigma 1351005) or vehicle was added to the perfusate. The hearts were then perfused with 1 mM H2O2 for 1 minute, followed by 3-minutes of perfusion of quenching solution. Electrocardiograms were monitored throughout the experiment to ensure viability of the preparation and an isoproterenol-induced increase in heart rate. […]
The test system of the next experiment is Rad. The experiment is described as follows: Whole cell proteomics (TMT SPS MS3) of non-transgenic cardiomyocytes, isoproterenol vs. no isoproterenol. The class given is cell-based, mouse. Particulars: non-transgenic (NTG) mice cardiomyocytes; 10-minute isoproterenol.
The subject of experiment [2] is CaV1.2 neighbourhood proteins (Rad, PKA catalytic subunit, Sorbs2). In words: APEX2 proximity labeling with TMT SPS MS3 in isolated cardiomyocytes, isoproterenol vs. no isoproterenol. The class given is cell-based, mouse. To be noted: for decrease in Rad (proximity labeling, iso vs. no iso) / increase in PKA catalytic subunit (proximity labeling, iso vs. no iso): 1 μM isoproterenol, 10 minutes.
Description: Thus, proximity-labeling in cardiomyocytes treated with isoproterenol was compared to untreated controls. Cardiomyocytes were enzymatically isolated from two α1C-APEX2 mice, mixed, loaded with biotin-phenol and exposed to isoproterenol or vehicle for 10 minutes at room temperature. For the final minute, labeling was initiated with H2O2. This was repeated for myocytes from 4 additional sets of mice (total: 5 sets of biological replicates; 10 mice). Biotinylated proteins were purified and detected using TMT SPS MS^3. The isobaric labeling allowed simultaneous quantification of all proteins measured rather than just a select subset, thus enabling statistical analysis of relative enrichment between vehicle and isoproterenol treatment. Candidates in the upper left quadrant have reduced labeling (likely indicating reduced proximity) after isoproterenol and candidates in the upper right quadrant have increased labeling (likely indicating increased proximity) after isoproterenol. Mitochondrial/nuclear proteins were removed from the analysis.
For the proximity labeling, isolated ventricular cardiomyocytes were incubated in labeling solution with 0.5 μM biotin-phenol (Iris-biotech) for 30 minutes. During the final 10 minutes of labeling, 1 μM isoproterenol (Sigma 15627) was added. To initiate labeling, H2O2 (Sigma H1009) was added to a final concentration of 1 mM for 1 min Exactly 1 minute after H2O2 treatment, the cells were washed three times with cold quenching solution containing (in mM) 10 Sodium ascorbate (VWR 95035-692), 5 Trolox (Sigma 238813), and 10 Sodium azide (Sigma S2002). After the cells were harvested by centrifugation, the quenching solution was aspirated and the pellet was flash-frozen and stored at −80° C. until streptavidin pull-down.
With regard to the processing of biotinylated proteins for mass spectrometry, proteins were precipitated with Trichloroacetic acid (TCA; Sigma T9159) and then centrifuged at 21,130×g at 4° C. for 10 minutes. The pellet was washed with −20° C. cold acetone (Sigma 650501), vortexed, and centrifuged at 21,130×g at 4° C. for 10 minutes. Following centrifugation, acetone was aspirated and the pellet was acetone-washed again three more times.

Experiment [3] concerns CFP-tagged Rad localization in cardiomyocytes. In words: Confocal fluorescence of CFP-Rad at membrane and in cytosol of cardiomyocytes before and after isoproterenol. Type of experiment: cell-based. Particulars: CFP-Rad adenovirus-infected rat cardiomyocytes; 5 minutes after superfusion. From the text:
Mass spectrometry identified phosphorylated proteins from biotinylated, streptavidin-purified samples from APEX2 mice, and from whole hearts of wild-type (WT) mice treated with isoproterenol. […] Rad, a member of the RGK family of GTP-binding proteins, is an inhibitor of voltage-gated Ca^2+ channels and is also a PKA target. […] To further explore whether β-agonists can alter membrane-localization of Rad relative, rat cardiomyocytes were infected with adenoviruses harboring cyan fluorescent protein (CFP)-tagged Rad. The fluorescence of CFP-Rad at the membrane and in the cytosol was quantified before and after isoproterenol. The number of exposures were limited to avoid photo-bleaching.

The test system of experiment [4] is CaV1.2 channels in cardiomyocytes. The experiment is described as follows: Whole-cell patch clamp of nisoldipine-insensitive Ca2+ current in cardiomyocytes of transgenic mice. The class given is cell-based, mouse. (In general: In patch-clamp work, channel activity is measured electrically.)
Excerpt: With regard to the isolation of adult cardiac myocytes, mice ventricular myocytes were isolated by enzymatic digestion using a Langendorff perfusion apparatus. Cardiomyocytes were isolated from 8-12 week-old non-transgenic and transgenic mice.
With regard to whole cell patch clamp electrophysiology, isolated cardiomyocytes or HEK cells on glass 8×8 mm coverslips were placed in Bioptechs Delta T Dishes filled with solution containing (in mM): 112 NaCl, 5.4 KCl, 1.7 NaH2PO4. 1.6 MgCl2, 20.4 HEPES (pH 7.2), 30 Taurine, 2 DL-Carnitine, 10.3 Creatine, 5.4 Glucose. The petri dishes were mounted on the stage of an inverted microscope and served as a perfusion chamber. After establishing a seal and achieving whole-cell configuration, external solutions were changed by fast local perfusion method.
For cardiomyocytes, pipette resistance was between 1-3 ma Membrane currents were measured by conventional (ruptured) whole-cell patch-clamp method using a MultiClamp 700B or Axopath200B amplifier and pCLAMP 10.7 software (Molecular Devices). Capacitance transients and series resistance were compensated. Voltage was corrected for liquid junction potential (−10 mV) during analysis. Leak currents were subtracted by a P/4 protocol. […]
Experiment [5] concerns CaV2.2 (α1B+β2B) channels in HEK cells. The experiment is described as follows: Perforated whole-cell patch clamp of Ba2+ current, forskolin stimulation of CaV2.2 in HEK cells. The class given is cell-based, human. The text has this: N-type Ca^2+ channels (CaV2.2) are widely expressed, play an essential role in neurotransmitter release, and are targets for the development of drugs to relieve chronic pain. The inventors expressed the CaV2.2 α1B subunit with β2B and Rad in HEK cells. […] Attenuating binding of Rad […] prevented the forskolin-induced modulation of CaV2.2 current (FIG. 19F). In the above, with regard to clone construction and cell culture, all mouse N-terminal-GFP-tagged mouse Rad (accession #XM_006531206) constructs in a pEGFP-C1 vector were generated by gene-synthesis (Gene Universal). The human CaV2.2 (pSAD442-1) was a gift from Diane Lipscombe (Addgene plasmid #62574). […] The media was changed 4-6 hours after transfection. The cells were split onto coverslips coated with attachment factor protein (Gibco). Electrophysiological recordings were carried out at room temperature 24-48 hours after transfection. For HEK293T cell experiments involving the forskolin-induced stimulation of CaV1.2 and CaV2.2 currents, perforated whole-cell patch clamp technique was implemented to minimize current run-down and preserve the intracellular milieu. Amphotericin B (Sigma A9528) was initially dissolved in DMSO (20 mg/ml) and used in the pipette solution at a final concentration of 200 μg/ml. The tip of the pipette was filled with amphotericin-free solution (in mM): 80 Cesium Gluconate, 40 CsCI, 10 HEPES, 10 BAPTA, 1 MgCl2, 1 Mg-ATP, pH adjusted to 7.2 with CsOH. The pipette was backfilled with (in mM): 125 CsCI, 10 HEPES, 4 CaCl2, 1 MgCl2, pH-7.2 with CsOH; containing amphotericin, 200 μg/ml. CaCl2 (4 mM) was added to the intracellular patch electrode solution to enable the detection of conversion from perforated to ruptured configuration. […] For experiments with HEK293T cells, in addition to step protocols, we used a ramp protocol with a 200 ms voltage ramp from -60 mV (or -70 mV for CaV1.3) to +60 mV applied every 10 s- to monitor the near-steady-state I-V relationship. All experiments were performed at room temperature, 22±1° C. Cells were selected based on co-transfection of a vector containing GFP in the absence of Rad, and GFP-conjugated Rad for the experiments with Rad transfected. For both cardiomyocytes and HEK293 cells, cells without a stable baseline (potentially due to run-down or run-up) were not studied. The voltage steps protocol used in cardiomyocytes studies evaluated […]), which was recalculated in […] to G=G(V) as […]). For HEK cells experiments, the inventors used a ramp protocol (FIG. 17B). The experimental records were I=I(t), where t=time. The inventors transformed these records to I=I(V), which were then further transformed to G=G(V) in […]). The parameters of voltage-dependent activation were obtained using a modified Boltzmann distribution. […]

For experiment [6], the system named is CaV1.2 (α1C+β2B) channels in HEK293T cells. The experiment is described as follows: Perforated whole-cell patch clamp of Ba2+ current, forskolin stimulation of CaV1.2 reconstituted in HEK293T cells. Type of experiment: cell-based, rabbit α1C, human β2B, mouse Rad. The text has this: The robust heterologous reconstitution of PKA regulation of L-type Ca^2+ currents has been long pursued as a crucial step. […] To preserve the normal intracellular milieu and signaling cascades, the inventors used perforated, whole-cell patch clamp to assess function. The inventors used Ba^2+ as the charge carrier to minimize inactivation and depolarized the membrane potential with either a voltage step to 0 mV or a voltage ramp from −60 mV to +60 mV.
In the above, with regard to clone construction and cell culture, all mouse N-terminal-GFP-tagged mouse Rad (accession #XM_006531206) constructs in a pEGFP-C1 vector were generated by gene-synthesis (Gene Universal). The human CaV2.2 (pSAD442-1) was a gift from Diane Lipscombe (Addgene plasmid #62574). HEK293T cells were cultured in DMEM with 10% FBS, 1% Pen/Strep, and transfected with 3 μg rabbit α1C (accession #X15539) or α1B (for CaV2.2 experiments), 3 μg human β2B (NM-201590.3) and 0.5 μg N-terminal-GFP-tagged mouse Rad using Lipofectamine 2000 (Thermo Fisher Scientific). The media was changed 4-6 hours after transfection. The cells were split onto coverslips coated with attachment factor protein (Gibco). Electrophysiological recordings were carried out at room temperature 24-48 hours after transfection.
For HEK293T cell experiments involving the forskolin-induced stimulation of CaV1.2 and CaV2.2 currents, perforated whole-cell patch clamp technique was implemented to minimize current run-down and preserve the intracellular milieu. Amphotericin B (Sigma A9528) was initially dissolved in DMSO (20 mg/ml) and used in the pipette solution at a final concentration of 200 μg/ml. The tip of the pipette was filled with amphotericin-free solution (in mM): 80 Cesium Gluconate, 40 CsCI, 10 HEPES, 10 BAPTA, 1 MgCl2, 1 Mg-ATP, pH adjusted to 7.2 with CsOH. The pipette was backfilled with (in mM): 125 CsCI, 10 HEPES, 4 CaCl2, 1 MgCl2, pH-7.2 with CsOH; containing amphotericin, 200 μg/ml. CaCl2 (4 mM) was added to the intracellular patch electrode solution to enable the detection of conversion from perforated to ruptured configuration. The external solution contained (in mM): 130 tetraethylammonium methanesulfonate, 10 HEPES, 1 MgCl2, 10 (with Rad expression) or 2 (without Rad expression) BaCI2, 5 Glucose, pH adjusted to pH 7.4 with CsOH. For experiments with HEK293T cells, in addition to step protocols, we used a ramp protocol with a 200 ms voltage ramp from −60 mV (or −70 mV for CaV1.3) to +60 mV applied every 10 s- to monitor the near-steady-state I-V relationship. All experiments were performed at room temperature, 22±1° C. Cells were selected based on co-transfection of a vector containing GFP in the absence of Rad, and GFP-conjugated Rad for the experiments with Rad transfected. For both cardiomyocytes and HEK293 cells, cells without a stable baseline (potentially due to run-down or run-up) were not studied.
The voltage steps protocol used in cardiomyocytes studies evaluated IIpeak=Ipeak (V), which was recalculated in […] to G=G(V) as G=I/(V−Erev). For HEK cells experiments, the inventors used a ramp protocol (FIG. 17B). The experimental records were I=I(t), where t=time. The inventors transformed these records to I=I(V), which were then further transformed to G=G(V) in […] (FIG. 17B).

Experiment [7] relates to CaV1.3 (α1D+β2B) channels in HEK293T cells. The experiment is described as follows: Perforated whole-cell patch clamp of Ba2+ current, forskolin stimulation of CaV1.3 in HEK293T cells. Type of experiment: cell-based. Particulars: cells expressing α1D+β2B+Rad. On the procedure: In adrenal chromaffin cells and the sinus node cells of the heart, L-type CaV1.3 channels are robustly stimulated by PKA. […] Thus, like CaV1.2, Rad is the missing ingredient. For HEK293T cell experiments involving the forskolin-induced stimulation of CaV1.2 and CaV2.2 currents, perforated whole-cell patch clamp technique was implemented to minimize current run-down and preserve the intracellular milieu. Amphotericin B (Sigma A9528) was initially dissolved in DMSO (20 mg/ml) and used in the pipette solution at a final concentration of 200 μg/ml. The tip of the pipette was filled with amphotericin-free solution (in mM): 80 Cesium Gluconate, 40 CsCI, 10 HEPES, 10 BAPTA, 1 MgCl2, 1 Mg-ATP, pH adjusted to 7.2 with CsOH. The pipette was backfilled with (in mM): 125 CsCI, 10 HEPES, 4 CaCl2, 1 MgCl2, pH-7.2 with CsOH; containing amphotericin, 200 μg/ml. CaCl2 (4 mM) was added to the intracellular patch electrode solution to enable the detection of conversion from perforated to ruptured configuration. […] For experiments with HEK293T cells, in addition to step protocols, we used a ramp protocol with a 200 ms voltage ramp from -60 mV (or -70 mV for CaV1.3) to +60 mV applied every 10 s- to monitor the near-steady-state I-V relationship. All experiments were performed at room temperature, 22±1° C. Cells were selected based on co-transfection of a vector containing GFP in the absence of Rad, and GFP-conjugated Rad for the experiments with Rad transfected. For both cardiomyocytes and HEK293 cells, cells without a stable baseline (potentially due to run-down or run-up) were not studied. The voltage steps protocol used in cardiomyocytes studies evaluated […]), which was recalculated in […] to G=G(V) as […]). For HEK cells experiments, the inventors used a ramp protocol (FIG. 17B). The experimental records were I=I(t), where t=time. The inventors transformed these records to I=I(V), which were then further transformed to G=G(V) in […]). The parameters of voltage-dependent activation were obtained using a modified Boltzmann distribution. […]

Setting [8] is: CaV2.2 α1B+β2B co-expressed with Rad.
The mark [9] stands for this setting: CaV2.2 α1B+β2B co-expressed with Rem.
The mark [10] stands for this setting: HEK cells expressing 35-mutant α1C+28-mutant β2B+Rad.
Where [11] appears, read: cells expressing α1C+β2B+Rad, forskolin vs. no forskolin.

The structures appear in SMILES notation. Values joined by “and” are separate entries in the source; they are usually repeats but may differ in a detail not shown here. Equal values may be shown once. “Also recorded” adds a separate entry of the source. Where only a bound is given, the exact number is not on record here.

For `CC(C)NCC(O)c1ccc(O)c(O)c1` (centres unmarked) [isoproterenol], the “decrease in Rad (proximity labeling, iso vs. no iso)” value in experiment [1] amounted to 36%. Moreover, the “effect on the amount of Rad (whole-cell, not proximity labeled)” value with Rad is reported as “no significant effect; also recorded: unchanged”. Further, the “decrease in the amount of Rad, all three approaches” value in experiment [2] (α1C-APEX2 and β2B-APEX2 cardiomyocytes and α1C-APEX2 whole hearts) is reported as 30-50%. In addition, in experiment [2] (α1C-APEX2 cardiomyocytes), the “decrease in Rad (proximity labeling, iso vs. no iso)” value is roughly 50% and the “increase in PKA catalytic subunit (proximity labeling, iso vs. no iso)” value is 50%. Moreover, the “reduction in Sorbin and SH3 domain containing 2 (Sorbs2)” value in experiment [2] (α1C-APEX2 cardiomyocytes, isoproterenol 10 minutes) is roughly 57%. In addition, in experiment [2] (β2B-APEX2 cardiomyocytes), the “decrease in Rad (proximity labeling, iso vs. no iso)” value is given as 30% and the “increase in PKA catalytic subunit (proximity labeling, iso vs. no iso)” value worked out at 68%. For the same compound, in experiment [3], the “decrease of Rad localized at the membrane” value is 21%±3% and the “increase of cytosolic Rad” value is 20%±5%.
As to `C=C[C@@]1(C)CC(=O)[C@]2(O)[C@@]3(C)[C@@H](O)CCC(C)(C)[C@@H]3[C@H](O)[C@H](OC(C)=O)[C@@]2(C)O1` [forskolin], the “increase of Gmax, mean” value is listed as 1.4 fold in experiment [4] (9* exon-containing CaV1.2 channels); 2.2 fold in experiment [5] (setting [8]); 1.9 fold in experiment [6] (setting [10]); 1.6 fold in experiment [6] (cells expressing 9*-α1C, β2B and Rad); 1.9 fold in experiment [7]. The “increase of nisoldipine-insensitive maximal conductance (Gmax), mean” value in experiment [4] (transgenic pWT α1C cardiomyocytes, 10 μM forskolin) came to 1.4 fold. The “shift of V50 for activation” value in experiment [5] (setting [8]) is recorded as −3.7 mV; in experiment [5] (setting [9]) it was −4.2 mV; in experiment [6] (setting [10]), −3.3 mV; in experiment [6] (cells expressing α1C+β2B+Rad), −5 mV; in experiment [7], −4.3 mV. Moreover, in experiment [5] (setting [9]), the “increase of Gmax” value was 1.6 fold. Besides, the “increase of Gmax, as much as” value was no more than 3.1 fold in experiment [6] (setting [10]) and no more than 2.3 fold in experiment [7]. The “increase of maximal conductance (Gmax), as much as” value in experiment [6] (setting [11]) is no more than 4.5 fold. Moreover, in experiment [6] (setting [11]), the “increase of maximal conductance (Gmax), mean” value is 1.5 fold and 1.6 fold.
